Legend:
[1] = molecular target: rat orexin 1 receptor (Rattus norvegicus, UniProt P56718); test: Rat orexin 1 receptor radioligand binding; conditions: rat orexin 1 receptor; averages of 2-20 runs; read-out: rOX1 Ki
Method in brief: (§1)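 Competition binding with the tritiated thiazolyl-pyrrolidinyl-methanone radioligand in PBS on homogenized rat or human OX1R-expressing cell suspensions, ≤0.1% DMSO; nonspecific binding defined with 10 μM almorexant. Bound radioactivity read by scintillation after filtration; IC50 from one-site competition fit, converted to Ki using pre-determined radioligand Kd.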

[2] = molecular target: human orexin 1 receptor (Homo sapiens, UniProt O43613); test: Human orexin 1 receptor radioligand binding; conditions: human orexin 1 receptor; averages of 2-20 runs; read-out: hOX1 Ki
Method in brief: as §1

[3] = molecular target: human orexin 2 receptor (Homo sapiens (Human), UniProt O43614); test: Human orexin 2 receptor radioligand binding; conditions: human orexin 2 receptor; averages of 2-20 runs; read-out: hOX2 Ki
Chain of human orexin 2 receptor (O43614 whole entry): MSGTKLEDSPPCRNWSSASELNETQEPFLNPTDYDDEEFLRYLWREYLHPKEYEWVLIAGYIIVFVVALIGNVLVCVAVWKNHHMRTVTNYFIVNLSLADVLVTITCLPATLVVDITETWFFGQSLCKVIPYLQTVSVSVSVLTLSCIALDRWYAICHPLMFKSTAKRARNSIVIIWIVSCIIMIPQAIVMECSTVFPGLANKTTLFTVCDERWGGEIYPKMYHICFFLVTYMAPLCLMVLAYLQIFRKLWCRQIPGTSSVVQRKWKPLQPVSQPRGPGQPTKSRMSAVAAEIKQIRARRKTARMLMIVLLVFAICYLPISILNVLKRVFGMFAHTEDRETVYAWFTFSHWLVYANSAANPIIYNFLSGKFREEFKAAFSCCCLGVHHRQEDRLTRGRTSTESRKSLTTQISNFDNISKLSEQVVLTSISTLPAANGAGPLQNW
Method in brief: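 HEK293 cells stably expressing human OX2 receptor, homogenized, incubated with [3H]-EMPA and compounds (DMSO ≤0.1%); nonspecific binding with 10 μM almorexant. Filter-bound radioactivity counted by scintillation; IC50 from one-site competition fit of triplicates, Ki from IC50 and predetermined radioligand Kd, averaged over 2-20 runs.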

| SMILES | Ki [1] [nM] | Ki [2] [nM] | Ki [3] [nM] |
| --- | --- | --- | --- |
| Cc1cnc(C(=O)N2C[C@H]3C[C@@H](Nc4cnc(C(F)(F)F)cn4)[C@@H]2C3)c(-c2ncccn2)c1 [Example 190, (5-methyl-3-(pyrimidin-2-yl)pyridin-2-yl)((1S,4S,6R)-6-((5-(trifluoromethyl)pyrazin-2-yl)amino)-2-azabicyclo[2.2.1]heptan-2-yl)methanone] | 12 | 12 | > 10000 |
| Cc1ccc(-c2ncccn2)c(C(=O)N2C[C@H]3C[C@@H](Nc4cnc(C(F)(F)F)cn4)[C@@H]2C3)n1 [Example 191, (6-methyl-3-(pyrimidin-2-yl)pyridin-2-yl)((1S,4S,6R)-6-((5-(trifluoromethyl)pyrazin-2-yl)amino)-2-azabicyclo[2.2.1]heptan-2-yl)methanone] | 15 | 13 | 163 |
| O=C(c1cccc(F)c1-n1nccn1)N1C[C@H]2C[C@@H](Nc3cnc(C(F)(F)F)cn3)[C@@H]1C2 [Example 192, (3-fluoro-2-(2H-1,2,3-triazol-2-yl)phenyl)((1S,4S,6R)-6-((5-(trifluoromethyl)pyrazin-2-yl)amino)-2-azabicyclo[2.2.1]heptan-2-yl)methanone] | 8 | 7 | 249 |
| O=C(c1ccc(F)cc1-n1nccn1)N1C[C@H]2C[C@@H](Nc3cnc(C(F)(F)F)cn3)[C@@H]1C2 [Example 193, (4-fluoro-2-(2H-1,2,3-triazol-2-yl)phenyl)((1S,4S,6R)-6-((5-(trifluoromethyl)pyrazin-2-yl)amino)-2-azabicyclo[2.2.1]heptan-2-yl)methanone] | 40 | 65 | 2000 |
| O=C(c1cc(F)ccc1-n1nccn1)N1CC2CC(Nc3cnc(C(F)(F)F)cn3)C1C2 [Example 194, ((5-fluoro-2-(2H-1,2,3-triazol-2-yl)phenyl)((1S,4S,6R)-6-((5-(trifluoromethyl)pyrazin-2-yl)amino)-2-azabicyclo[2.2.1]heptan-2-yl)methanone] | 8 | 8 | 241 |
| O=C(c1c(F)cccc1-n1nccn1)N1C[C@H]2C[C@@H](Nc3cnc(C(F)(F)F)cn3)[C@@H]1C2 [Example 195, (2-fluoro-6-(2H-1,2,3-triazol-2-yl)phenyl)((1S,4S,6R)-6-((5-(trifluoromethyl)pyrazin-2-yl)amino)-2-azabicyclo[2.2.1]heptan-2-yl)methanone] | 9 | 8 | 199 |
| Cc1cccc(C(=O)N2C[C@H]3C[C@@H](Nc4cnc(C(F)(F)F)cn4)[C@@H]2C3)c1-n1nccn1 [Example 196, (3-methyl-2-(2H-1,2,3-triazol-2-yl)phenyl)((1S,4S,6R)-6-((5-(trifluoromethyl)pyrazin-2-yl)amino)-2-azabicyclo[2.2.1]heptan-2-yl)methanone] | 6 | 4 | 60 |
| COc1ccc(C(=O)N2C[C@H]3C[C@@H](Nc4cnc(C(F)(F)F)cn4)[C@@H]2C3)c(-n2nccn2)c1 [Example 197, (4-methoxy-2-(2H-1,2,3-triazol-2-yl)phenyl)((1S,4S,6R)-6-((5-(trifluoromethyl)pyrazin-2-yl)amino)-2-azabicyclo[2.2.1]heptan-2-yl)methanone] | 93 | 39 | 9700 |
| O=C(c1ccc(F)cc1-c1ncccn1)N1C[C@H]2C[C@@H](Nc3cnc(C(F)(F)F)cn3)[C@@H]1C2 [Example 198, (4-fluoro-2-(pyrimidin-2-yl)phenyl)((1S,4S,6R)-6-((5-(trifluoromethyl)pyrazin-2-yl)amino)-2-azabicyclo[2.2.1]heptan-2-yl)methanone] | 11 | 9 | 1380 |
| O=C(c1cc(F)ccc1-c1ncccn1)N1C[C@H]2C[C@@H](Nc3cnc(C(F)(F)F)cn3)[C@@H]1C2 [Example 199, (5-fluoro-2-(pyrimidin-2-yl)phenyl)((1S,4S,6R)-6-((5-(trifluoromethyl)pyrazin-2-yl)amino)-2-azabicyclo[2.2.1]heptan-2-yl)methanone] | 6 | 8 | 221 |
| O=C(c1c(F)cccc1-c1ncccn1)N1C[C@H]2C[C@@H](Nc3cnc(C(F)(F)F)cn3)[C@@H]1C2 [Example 200, (2-fluoro-6-(pyrimidin-2-yl)phenyl)((1S,4S,6R)-6-((5-(trifluoromethyl)pyrazin-2-yl)amino)-2-azabicyclo[2.2.1]heptan-2-yl)methanone] | 7 | 6 | 240 |

The next lines start with the values.

| Ki [1] [nM] | Ki [2] [nM] | Ki [3] [nM] | SMILES |
| --- | --- | --- | --- |
| 6 | 6 | 213 | O=C(c1ccccc1-c1ncccn1)N1C[C@H]2C[C@@H](Nc3cnc(C(F)(F)F)cn3)[C@@H]1C2 [Example 201, (2-(pyrimidin-2-yl)phenyl)((1S,4S,6R)-6-((5-(trifluoromethyl)pyrazin-2-yl)amino)-2-azabicyclo[2.2.1]heptan-2-yl)methanone] |
| 13 | 13 | 302 | O=C(c1cc(F)ccc1-c1ncco1)N1C[C@H]2C[C@@H](Nc3cnc(C(F)(F)F)cn3)[C@@H]1C2 [Example 202, (5-fluoro-2-(oxazol-2-yl)phenyl)((1S,4S,6R)-6-((5-(trifluoromethyl)pyrazin-2-yl)amino)-2-azabicyclo[2.2.1]heptan-2-yl)methanone] |
| 9 | 9 | 545 | O=C(c1ccccc1-c1ncc(F)cn1)N1C[C@H]2C[C@@H](Nc3cnc(C(F)(F)F)cn3)[C@@H]1C2 [Example 203, (2-(5-fluoropyrimidin-2-yl)phenyl)((1S,4S,6R)-6-((5-(trifluoromethyl)pyrazin-2-yl)amino)-2-azabicyclo[2.2.1]heptan-2-yl)methanone] |
| 9 | 9 | 960 | O=C(c1cccc(F)c1-c1ncc(F)cn1)N1C[C@H]2C[C@@H](Nc3cnc(C(F)(F)F)cn3)[C@@H]1C2 [Example 204, (3-fluoro-2-(5-fluoropyrimidin-2-yl)phenyl)((1S,4S,6R)-6-((5-(trifluoromethyl)pyrazin-2-yl)amino)-2-azabicyclo[2.2.1]heptan-2-yl)methanone] |
| 51 | 35 | 846 | O=C(c1nccnc1-c1ccccc1)N1C[C@H]2C[C@@H](Nc3cnc(C(F)(F)F)cn3)[C@@H]1C2 [Example 205, (3-phenylpyrazin-2-yl)((1S,4S,6R)-6-((5-(trifluoromethyl)pyrazin-2-yl)amino)-2-azabicyclo[2.2.1]heptan-2-yl)methanone] |
| 8 | 10 | 103 | O=C(c1ccccc1-c1ccccc1)N1C[C@H]2C[C@@H](Nc3cnc(C(F)(F)F)cn3)[C@@H]1C2 [Example 206, [1,1′-biphenyl]-2-yl((1S,4S,6R)-6-((5-(trifluoromethyl)pyrazin-2-yl)amino)-2-azabicyclo[2.2.1]heptan-2-yl)methanone] |
| 143 | 127 | 611 | O=C(c1occc1-c1ccccc1)N1C[C@H]2C[C@@H](Nc3cnc(C(F)(F)F)cn3)[C@@H]1C2 [Example 207, (3-phenylfuran-2-yl)((1S,4S,6R)-6-((5-(trifluoromethyl)pyrazin-2-yl)amino)-2-azabicyclo[2.2.1]heptan-2-yl)methanone] |
| 7 | 6 | 846 | CN(c1cnc(C(F)(F)F)cn1)[C@@H]1C[C@H]2C[C@@H]1N(C(=O)c1cccc(F)c1-c1ncccn1)C2 [Example 208, (3-fluoro-2-(pyrimidin-2-yl)phenyl)((1S,4S,6R)-6-(methyl(5-(trifluoromethyl)pyrazin-2-yl)amino)-2-azabicyclo[2.2.1]heptan-2-yl)methanone] |
| 9 | 5 | 753 | CN(c1cnc(C(F)(F)F)cn1)[C@@H]1C[C@H]2C[C@@H]1N(C(=O)c1cc(F)ccc1-c1ncccn1)C2 [Example 209, (5-fluoro-2-(pyrimidin-2-yl)phenyl)((1S,4S,6R)-6-(methyl(5-(trifluoromethyl)pyrazin-2-yl)amino)-2-azabicyclo[2.2.1]heptan-2-yl)methanone] |
| 6 | 5 | 502 | CN(c1cnc(C(F)(F)F)cn1)[C@@H]1C[C@H]2C[C@@H]1N(C(=O)c1ccccc1-c1ncccn1)C2 [Example 210, ((1S,4S,6R)-6-(methyl(5-(trifluoromethyl)pyrazin-2-yl)amino)-2-azabicyclo[2.2.1]heptan-2-yl)(2-(pyrimidin-2-yl)phenyl)methanone] |
| 31 | 16 | 1300 | O=C(c1cccc(F)c1-c1ncccn1)N1C[C@H]2C[C@@H](N(CC3CC3)c3cnc(C(F)(F)F)cn3)[C@@H]1C2 [Example 211, ((1S,4S,6R)-6-((cyclopropylmethyl)(5-(trifluoromethyl)pyrazin-2-yl)amino)-2-azabicyclo[2.2.1]heptan-2-yl)(3-fluoro-2-(pyrimidin-2-yl)phenyl)methanone] |
| 14 | 9 | 607 | O=C(c1cccc(F)c1-n1nccn1)N1C[C@H]2C[C@@H](Nc3cnc(Cl)cn3)[C@@H]1C2 [Example 212, ((1S,4S,6R)-6-((5-chloropyrazin-2-yl)amino)-2-azabicyclo[2.2.1]heptan-2-yl)(3-fluoro-2-(2H-1,2,3-triazol-2-yl)phenyl)methanone] |
| 39 | 31 | 871 | O=C(c1cc(F)ccc1-n1nccn1)N1CC2CC(Nc3cnc(Cl)cn3)C1C2 [Example 213, 1S,4S,6R)-6-((5-chloropyrazin-2-yl)amino)-2-azabicyclo[2.2.1]heptan-2-yl)(5-fluoro-2-(2H-1,2,3-triazol-2-yl)phenyl)methanone] |
